In patent US20170029454A1, “NKT CELL LIGANDS AND METHODS OF USE” (THE SCRIPPS RESEARCH INSTITUTE, priority 2013, published 2017):
Like-named read-outs stand apart in the source and are kept apart here.

Key:
[1] = target: L363 antibody; experiment: Surface plasmon resonance: binding of immobilized L363 antibody to CD1d-lipid complexes; conditions: for Affinity Kd (Kdiss/Kass) / Kdiss (L363 binding to CD1d-lipid complex) / Kd: lipid loaded on mCD1d, single cycle SPR, Biacore T200; for Kd: read-out: Affinity Kd (Kdiss/Kass); for binding of L363 to lipid loaded into CD1d: SPR
Description: Single cycle analysis was performed on CM5 chips using 250-1000 RUs of immobilized antibody and increasing concentrations of CD1-lipid complexes.
(§1) A Biacore T200 instrument (GE Healthcare, Pittsburgh, Pa.) was used for SPR measurements. Measurements were performed using single cycle protocols to avoid repeated use of regeneration buffer on the immobilized ligands. Immobilization of target antibodies was carried out using classical amine coupling chemistry. 250 to 1,000 RU of antibody was immobilized in each flow cell. All mCD1-lipid complexes were purified after loading to ensure maximal homogeneity and avoid the presence of small amounts of aggregated material. Concentrations ranging from […] were used for each CD1-lipid complex. Flow cell one was used as a negative control and used for subtraction from experimental flow cells. Global analysis of subtracted sensorgrams was carried out using the T200 analysis software.
as §1, with “(available from GE” for “(GE”, “cells (L363 antibody—control antibody).” for “cells.”

[2] = test system: DN32.D3 NKT cells; experiment: T cell activation assay (IL-2 production) with Vα14 NKT hybridoma DN32.D3; type: cell-based; conditions: for effect on stimulation of NKT cells, FIG. 10 legend: DC3.2 cells treated with recombinant TNFα (legend FIG. 10); for effect on stimulation of NKT cells in the context of TNFα stimulation: DC3.2 cells, TNFα stimulation (FIG. 11); for effect on stimulation of NKT cells by DCs: non-differentiated and LPS-treated DC3.2 cells, 1-deoxygalactonojirimycin 0.5 μM, 1-deoxygluconojirimycin 2.0 μM; for effect of ceramidase inhibition on stimulatory activity towards NKT cells: untreated or LPS-treated DC3.2 cells, 24 h
Description: T cell hybridoma cells were cultured in RPMI supplemented with 10% FCS, 2 mM L-glutamine, 20 mM HEPES, and non-essential amino acids. Antigen presentation assays were carried out using 5-20×10^3 DC 3.2 cells or 1×10^5 splenocytes and 4×10^4 T cells per well in 96 well tissue culture plates in triplicates. Cell culture supernatants were collected 24 h later for determination of IL-2 concentrations using an IL-2-dependent NK cell line reporter system. NKT cells have a memory phenotype and hallmarks of “pre-activation” when analyzed ex vivo. In vitro they have been described as being highly autoreactive by their propensity at being activated by syngeneic target cells expressing CD1d molecules (Bendelac et al. 2007, Annual Rev. Immuno., 25:297; Park et al., 1998, J. Immunol., 160:3128). This phenomenon can be illustrated by the activation of Vα14 NKT hybridoma cell DN32.D3 against RBL-CD1, a CD1d positive cell line, that have been stimulated by […] ligands. Stimulation of DN32.D3 cells and TBA.7 cells, a non-Vα14 NKT cell hybridoma, was tested against RBL-CD1 or RBL-CD1 SAP^-/- in which […] expression was knocked down by interfering RNAs. The hybridoma cells were cultured in RPMI supplemented with 10% FCS, 2 mM L-glutamine, 20 mM HEPES, and non-essential amino acids. Antigen presentation assays were carried out using 5-20×10^3 DC 3.2 cells or 1×10^5 splenocytes and 4×10^4 T cells per well in 96-well tissue culture plates in triplicates. Cell culture supernatants were collected 24 h later for determination of IL-2 concentrations using an IL-2-dependent NK cell line reporter system. […] The results are shown in FIGS. 14A-E. A control (open circles) was included for comparison with each inhibitor (filled circles).

[3] = target: T1, CD1d (Mus musculus, UniProt P11609); experiment: In vitro binding of detergent to CD1d; conditions: in vitro (data not shown)
T1 sequence (P11609 19-297 limits assumed): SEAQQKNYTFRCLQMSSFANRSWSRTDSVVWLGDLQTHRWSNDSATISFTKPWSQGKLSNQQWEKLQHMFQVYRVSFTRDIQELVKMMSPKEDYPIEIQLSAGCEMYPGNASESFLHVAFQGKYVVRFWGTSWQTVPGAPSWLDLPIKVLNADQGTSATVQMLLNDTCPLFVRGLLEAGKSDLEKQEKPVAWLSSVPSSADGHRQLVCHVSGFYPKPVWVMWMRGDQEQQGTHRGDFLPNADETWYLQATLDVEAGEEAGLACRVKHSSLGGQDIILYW
T1 sequence (P01887 21-119 partner): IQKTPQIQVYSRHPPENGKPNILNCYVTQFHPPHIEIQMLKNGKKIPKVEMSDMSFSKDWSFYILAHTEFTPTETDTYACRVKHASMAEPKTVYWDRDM

[4] = target: T2, ASAHL (NAAA) (Homo sapiens, UniProt Q02083); experiment: Specific activity of the ASAHL inhibitor; type: biochemical; design: unit not given here
T2 sequence (Q02083 29-359): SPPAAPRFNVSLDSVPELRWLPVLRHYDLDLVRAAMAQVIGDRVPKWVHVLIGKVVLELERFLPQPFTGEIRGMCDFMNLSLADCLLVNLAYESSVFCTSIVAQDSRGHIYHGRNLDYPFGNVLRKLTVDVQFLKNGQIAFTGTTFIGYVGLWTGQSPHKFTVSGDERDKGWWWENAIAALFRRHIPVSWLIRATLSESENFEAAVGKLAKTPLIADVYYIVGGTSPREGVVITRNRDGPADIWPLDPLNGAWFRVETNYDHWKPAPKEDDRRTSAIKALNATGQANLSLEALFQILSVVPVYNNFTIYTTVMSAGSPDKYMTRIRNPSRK

[5] = test system: DC3.2 cells; experiment: Toxicity of ceramidase inhibitors over a 24 h assay (viability and αGalCer presentation to DN32.D3 cells); type: cell-based
Description: In the absence of a suitable animal model, enzyme inhibitors were used to assess the role of ceramidases in the control of NKT ligands. […] In the T-cell activation assays, DC3.2 cells were differentiated with LPS and treated with inhibitors of α-glycosidases (GLAi and/or GAAi), 1-deoxygalactonojirimycin (0.5 μM) and 1-deoxygluconojirimycin (2.0 μM), respectively, or ceramidase inhibitors (NAAA/ASAHLi(27) (20 μM) or AC/ASAH1i, carmofur (1.0 μM) for 24 h and used to stimulate DN32.D3 NKT cells. The results are shown in FIGS. 14A-E. A control (open circles) was included for comparison with each inhibitor (filled circles).

[6] = test system: L317 antibody; experiment: Surface plasmon resonance: binding of L317 antibody to CD1d-lipid complexes; conditions: SPR
Description: as §1
as §1, with “(available from GE” for “(GE”, “Flow cell one was used as a negative control and used for subtraction from experimental flow cells. Global analysis of subtracted sensorgrams was carried out using the T200 analysis software.” left out

[7] = carmofur 1.0 μM, NAAA/ASAHLi 20 μM

In the case of `CCCCCCCCCCCCCC[C@@H](O)C(O)[C@@H](N)COC1OC(CO)C(O)C(O)C1O` (stereo partly drawn), the “Affinity Kd (Kdiss/Kass)” value [1] is reported as “N.M”.

With `OC[C@H]1NC[C@H](O)[C@@H](O)[C@@H]1O` [1-deoxygluconojirimycin] the “effect on stimulation of NKT cells, FIG. 10 legend” value [2] was “induced or increased stimulation of NKT cells”, the “effect on stimulation of NKT cells in the context of TNFα stimulation” value [2] was “did not increase stimulation of NKT cells” and the “effect on stimulation of NKT cells by DCs” value [2] was “did not result in significant increase in stimulatory activity”.

For `CCCCCCCCCCCCCCCCCCCCCCCCCC(=O)N[C@@H](COC1OC(CO)C(O)C(O)C1O)C(O)[C@H](O)CCCCCCCCCCCCCC` (stereo partly drawn) [αGalCer], the “Kdiss (L363 binding to CD1d-lipid complex)” value [1] was 0.0083 s⁻¹ and the Kd [1] was 0.0967 µM.

With `CCCCCCCC/C=C\CCCCCCCCCCCCCC(=O)N[C@@H](COC1OC(CO)C(O)C(O)C1O)C(O)/C=C/CCCCCCCCCCCCC` (stereo partly drawn) [αGalCer24:1] the “Kdiss (L363 binding to CD1d-lipid complex)” value [1] was 0.05 s⁻¹ and the Kd [1] was 0.35 µM.

For `CCCCCCCCCCCCC/C=C/C(O)[C@H](COC1OC(CO)C(O)C(O)C1O)NC(=O)CCCCCCCCCCCCCCCCCCCCCCCCC` (stereo partly drawn) [αGluCer], the “Kdiss (L363 binding to CD1d-lipid complex)” value [1] was 0.4711 s⁻¹ and the Kd [1] was 5.02 µM.

`CCCCCCCCCCCC1(C)OCC(COCCCS(=O)(=O)[O-])O1.[Na+]` (stereo not drawn) [Sodium 3-[(2-methyl-2-undecyl-1,3-dioxolan-4-yl)methoxy]-1-propanesulfonate] was tested, and the “binding to CD1d” value [3] was “not bind CD1d to any measurable extent”.

For `CCCCCCCC/C=C\CCCCCCCCCCCCCC(=O)N[C@@H](COC1OC(CO)C(O)C(O)C1O)C(O)/C=C/CCCCCCCCCCCCC` (stereo partly drawn) [βGluCer24:1], the “Affinity Kd (Kdiss/Kass)” value [1] was “N.M” and the “stimulatory activity towards DN32.D3 after digestion with recombinant GBA” value ([2]; GBA 2 h at 37° C., WT splenocytes 10^5 cells/well) was “Stimulatory activity was not changed”.

`O=C(CCc1ccc(-c2ccccc2)cc1)N1CCCC1` [NAAA inhibitor, 1-(2-Biphenyl-4-yl)ethyl-carbonyl pyrrolidine] was tested, and the “effect on stimulatory activity of thymocytes towards DN32.D3” value ([2]; thymocytes as APC, NAAA/ASAHLi 20 μM) was “no effect”, the “effect of ceramidase inhibition on stimulatory activity towards NKT cells” value [2, 7] was “very limited but reproducible increase in stimulatory activity” and the “specific activity of the inhibitor of ASAHL” value [4] was 10-200.

With `CCCCCCNC(=O)n1cc(F)c(=O)[nH]c1=O` [carmofur, 1-Hexylcarbamoyl-5-fluorouracil] the “increase of stimulatory activity of thymocytes towards DN32.D3” value ([2]; thymocytes as APC, carmofur 1.0 μM) was 2.5 fold, the “effect of ceramidase inhibition on stimulatory activity towards NKT cells” value [2, 7] was “significant increase in stimulatory activity” and the “toxicity over a 24 h assay” value ([5]; viability and αGalCer presentation to DN32.D3 cells after treatment) was “very limited cell toxicity”.

With αGal(α1-2)Galactosylceramide the “binding of L363 to lipid loaded into CD1d” value [1] was “no ability to bind” and the “binding of L317 to lipid loaded into CD1d” value [6] was “no ability to bind”.

`OC[C@H]1NC[C@H](O)[C@@H](O)[C@H]1O` [1-deoxygalactonojirimycin] was tested, and the “effect on stimulation of NKT cells, FIG. 10 legend” value [2] was “induced or increased stimulation of NKT cells”, the “effect on stimulation of NKT cells in the context of TNFα stimulation” value [2] was “did not increase stimulation of NKT cells” and the “effect on stimulation of NKT cells by DCs” value [2] was “induced or increased a robust stimulation of NKT cells”.

With isoglobotrihexosylceramide [iGb3] the “binding of L363 to lipid loaded into CD1d” value [1] was “no ability to bind” and the “binding of L317 to lipid loaded into CD1d” value [6] was “no ability to bind”.

With `CCCCCCCCCCCCCC(=O)N[C@H](CO)[C@H](O)c1ccc([N+](=O)[O-])cc1` [NMAPPD, N-[(1R,2R)-2-hydroxy-1-(hydroxymethyl)-2-(4-nitrophenyl)ethyl]-tetradecanamide] the “toxicity over a 24 h assay” value [5] was “too much toxicity”.
